In patent US20260265690A1, “Epithelial Stem Cells and Production and Uses thereof” (Stemson Therapeutics Corp., priority 2022, published 2026):

What was measured:
Format in all cases: cell-based, human
hiPSC-EPSCs = assay: Colony formation assay (CFA) on 3T3 fibroblast feeders; conditions: small molecules added to expansion medium at passage 4; 2.5 μM CHIR99021, 1 μM DMH-1, 2.5 μM A-83-01; CFA at p7, 1K/well, 10 days
Protocol: FIGS. 2A-2D show characterization of hiPSC-EPSC in vitro. […] For CFA, different hiPSC-EPSC lines (EP61, EP112 and EP116) and control HF-KC were subcultured for 3 passages (p3) then plated on 3T3 fibroblast feeders at 1K/well and incubated for additional 10 days, then fixed and stained with Crystal violet. […] Hair follicle derived keratinocytes (HFKC) are used as reference cells. […] Ns: p>0.05; *: p<0.05; ** p<0.01; *** p<0.001; ****: p<0.0001. […] Note nuclear localization of 3-Cat, a hallmark of Wnt signaling activation in hiPSC-EPSC but not in HF-KC (arrows).
(§1) FIGS. 3A-3E show activation of Wnt signaling pathway via GSK3 inhibition enables long-term expansion of hiPSC-EPSC. […] The clonogenicity of hiPSC-EPSCs was diminishing as a result of serial passaging. […] For CFA, hiPSC-EPSCs were cultured for 7 weeks (p7) with or without small molecule inhibitors, then plated on 3T3 fibroblast feeders at 1K/well and incubated for additional 10 days, then fixed and stained with Crystal violet. The plates were scanned and analyzed using imaging software to determine the confluency. The confluency data from three experiments is summarized in the graph (right panel). […] The graph is showing the percentage of proliferating (Ki67+) hiPSC-EPSC over total nuclei (DAPI+). *: p<0.05. […] Data was analyzed using standard ddCt method and shown as mean±s.d. of the expression from three independent experiments. *: p<0.05; ****: p<0.01. […] Data are represented as a heatmap, where results from eight independent differentiation experiments were averaged and z-scores were calculated for each timepoint represented.
Despite EPSCs having substantial self-renewal capability in vivo, the prolonged expansion in vitro of EPSC isolated from various tissues has remained challenging. It is well documented that in conventional cultures, freshly isolated EPSCs rapidly lose their clonogenicity and stem cell marker expression signature. Inoue et al, Lab invest. 2009 August, 89(8):844-56; Ohyama et al., J Clin Invest. 2006 January, 116(1):249-60; Yang et al., Stem Cell Research & Therapy (2020) 11:303. […]

passage 4 hiPSC-EPSCs = assay: Bulk RNA-seq of HF bulge EPSC marker expression; conditions: CHIR-99021 vs DMSO
Protocol: FIGS. 3A-3E show activation of Wnt signaling pathway via GSK3 inhibition enables long-term expansion of hiPSC-EPSC. […] The clonogenicity of hiPSC-EPSCs was diminishing as a result of serial passaging. […] For CFA, hiPSC-EPSCs were cultured for 7 weeks (p7) with or without small molecule inhibitors, then plated on 3T3 fibroblast feeders at 1K/well and incubated for additional 10 days, then fixed and stained with Crystal violet. The plates were scanned and analyzed using imaging software to determine the confluency. The confluency data from three experiments is summarized in the graph (right panel). […] Data was analyzed using standard ddCt method and shown as mean±s.d. of the expression from three independent experiments. *: p<0.05; ****: p<0.01. […] Data are represented as a heatmap, where results from eight independent differentiation experiments were averaged and z-scores were calculated for each timepoint represented.
Bulk RNA-sequencing: RNA was extracted from each sample and quantified with Qubit. cDNA libraries were generated using the NEB library kit. All libraries were then quantified, pooled, and sequenced on Illumina platforms. Reads were first analyzed by fastQC and then trimmed for low-quality bases with Trimmomatic. Clean reads were then aligned to the human reference genome (GRCh38) with Ensembl gene annotation using STAR software. […]

[1] = tested on: Wnt pathway genes LEF1, TCF4, LGR6 in hiPSC-EPSC; assay: qPCR gene expression analysis of Wnt signaling pathway genes; conditions: ddCt, hiPSC-EPSC treated with CHIR-99021
Protocol: as §1
Despite EPSCs having substantial self-renewal capability in vivo, the prolonged expansion in vitro of EPSC isolated from various tissues has remained challenging. It is well documented that in conventional cultures, freshly isolated EPSCs rapidly lose their clonogenicity and stem cell marker expression signature. Inoue et al, Lab invest. […]

hiPSC-EPSC = assay: Ki67 immunofluorescent analysis of proliferating cells; conditions: hiPSC-EPSC treated with CHIR-99021 vs untreated cells
Protocol: as §1
Immunocytochemistry: Cells were cultured and imaged in 96 well plates. Briefly, media was aspirated, and wells rinsed once with PBS for 2 minutes. Cells were fixed with 4% formaldehyde for 10 minutes at RT, followed by two washes with PBS. […]

[2] = tested on: HF organoids of hiPSC-EPSC with dermal papilla (DP) cells; assay: 3D hair follicle organoid assay (roundness/elongation score); conditions: 2.5 μM added to EPSC and organoid culture
Protocol: FIGS. 4A-4D show in vitro functional analysis of hiPSC-EPSC in 3D tissue constructs. […] Bottom panel illustrates an organoid development process of using an example of an organoid created by combining fluorescently labeled (red) dermal papilla (DP) cells with HF-KCs. […] Measurement is obtained with CYTATION™ 5 software. Each color represents a different cell combination, and each dot represents a single organoid. The percentage of elongated organoids was increased when hiPSC-EPSC were treated with CHIR-99021. […] Neonatal foreskin-derived keratinocytes (HFK) were used as a control. […]
The stable hiPSC-EPSC with features of HF bulge EPSC described above were investigated as to whether they were receptive to specific mesenchymal stimuli and capable of creating complex multilayered tissues. […] To quantitively assess the organoids elongation and provide an indicator of hiPSC-EPSC functionality in vitro, an automated computational image-based analysis was employed that calculates the roundness of the generated 3D structures, assigning values between 1 and 0, where 1 represents a perfectly round object and 0 a long shaped one. By plotting time-lapse values of roundness score in a graph, the ability of iPSC-EPSC cells to generate elongated structure in combination with DP cells (FIG. 4C) was quantified. […]

| Compound | clonogenicity of hiPSC-EPSCs (hiPSC-EPSCs) | expression of HF bulge EPSC markers including KRT15, CD59, TP63, ITGA6, DKK3, SOX9, and NFATC1 (passage 4 hiPSC-EPSCs) | expression of Wnt pathway genes including LEF1, TCF4, and LGR6 [1] | number of proliferating (Ki67+) cells (hiPSC-EPSC) | percentage of elongated organoids [2] |
| --- | --- | --- | --- | --- | --- |
| Cc1cccc(-c2nn(C(=S)Nc3ccccc3)cc2-c2ccnc3ccccc23)n1 [A-83-01] | not BMP or TGF-β inhibitors, preserved clonogenicity | – | – | – | – |
| Cc1c[nH]c(-c2cnc(NCCNc3ccc(C#N)cn3)nc2-c2ccc(Cl)cc2Cl)n1 [CHIR-99021, 6-((2-((4-(2,4-Dichlorophenyl)-5-(4-methyl-1H-imidazol-2-yl)pyrimidin-2-yl)amino)ethyl)amino)nicotinonitrile] | preserved clonogenicity | increased the expression | upregulation | significantly higher number of proliferating cells | increased |
| CC(C)Oc1ccc(-c2cnc3c(-c4ccnc5ccccc45)cnn3c2)cc1 [DMH-1] | not BMP or TGF-β inhibitors, preserved clonogenicity | – | – | – | – |
